From patent US20240124434A1, “ATF6 INHIBITORS AND USES THEREOF” (Altos Labs, Inc., priority 2018, published 2024)
In brackets after ≈: the same amount, converted by molar mass. Where two headings read alike, the source gives them in different places.

Tests used:
[1] = In vitro microsomal stability, mouse liver microsomes; format: in vitro ADME; details: for half-life at […], 1 µM / half-life at 1 μM: mouse, read-out: T1/2 @ mLM; for half-life at […], 1 µM / microsomal CLint at […], 1 µM / half-life at 1 μM / microsomal CLint at 1 μM: mouse liver microsomes, pH 7.4; for microsomal CLint at […], 1 µM / microsomal CLint at 1 μM: intrinsic clearance, read-out: Clint @ mLM; for Rem. @ mLM (%): remaining fraction after 30 min, 1 μM compound, 0.5 mg/mL mouse liver microsomes, 1 mM NADPH
Experimental: (§1) Compounds were incubated at a final concentration of 1 μM with 0.5 mg/mL human liver microsomes (hLM) (#HMMCPL; Thermo), mouse liver microsomes (mLM) (#MSMCPL; Thermo) or rat liver microsomes (rLM) (#RTMCPL; Thermo) and 1 mM reduced dihydronicotinamide-adenine dinucleotide phosphate (NADPH) (#N1630; Sigma) in 100 mM phosphate buffer (pH 7.4) at 37° C. The reactions were terminated at 0, 5, 15 and 30 min by the addition of cold acetonitrile containing 50 ng/mL propranolol as an internal standard. […] Verapamil hydrochloride (#V4369 Aldrich) was used as a positive control in all studies.

[2] = Kinetic solubility (nephelometry); format: physicochemical; details: aqueous buffer, kinetic from dmso stock; PBS pH 7.4, 1% DMSO, 1 hour at 37° C., light scattering at 625 nm
Experimental: Concentration (μM) was then calculated by segmental regression. Amiodarone (#A8423 Aldrich) was used as positive control.

[3] = In vitro microsomal stability, rat liver microsomes; format: in vitro ADME; details: for microsomal CLint at […], 1 µM / half-life at 1 μM / half-life at […], 1 µM / microsomal CLint at 1 μM: pH 7.4, rat liver microsomes; for microsomal CLint at […], 1 µM / microsomal CLint at 1 μM: intrinsic clearance, read-out: Clint @ rLM; for half-life at 1 μM / half-life at […], 1 µM: rat, read-out: T1/2 @ rLM; for Rem. @ rLM (%): remaining fraction after 30 min, 1 μM compound, 0.5 mg/mL rat liver microsomes, 1 mM NADPH
Experimental: as §1

[4] = In vitro microsomal stability, human liver microsomes; format: in vitro ADME; details: for microsomal CLint at […], 1 µM / microsomal CLint at 1 μM: intrinsic clearance, read-out: Clint @ hLM; for Rem. @ hLM (%): remaining fraction after 30 min, 1 μM compound, 0.5 mg/mL human liver microsomes, 1 mM NADPH
Experimental: as §1

[5] = target: CYP2B6 (Homo sapiens (Human), UniProt P20813); assay: CYP inhibition in human liver microsomes; details: read-out: CYP-2B6; human liver microsomes; probe substrate bupropion
Sequence of CYP2B6 (P20813 whole entry, canonical isoform): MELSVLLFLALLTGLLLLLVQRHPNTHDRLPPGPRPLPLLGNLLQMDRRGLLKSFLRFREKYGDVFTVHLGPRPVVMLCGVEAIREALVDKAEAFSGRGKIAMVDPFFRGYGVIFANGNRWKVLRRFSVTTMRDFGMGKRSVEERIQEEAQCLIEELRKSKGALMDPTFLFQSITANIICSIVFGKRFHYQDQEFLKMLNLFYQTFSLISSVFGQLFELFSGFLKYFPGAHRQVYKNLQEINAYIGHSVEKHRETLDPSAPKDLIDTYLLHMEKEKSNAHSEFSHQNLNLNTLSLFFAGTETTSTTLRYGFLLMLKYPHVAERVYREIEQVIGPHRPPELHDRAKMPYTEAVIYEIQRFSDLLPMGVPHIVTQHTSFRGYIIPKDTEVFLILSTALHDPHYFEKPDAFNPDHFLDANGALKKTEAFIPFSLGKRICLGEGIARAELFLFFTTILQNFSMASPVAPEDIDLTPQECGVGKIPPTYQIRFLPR
Experimental: (§2) CYP inhibition by test compounds in human liver microsomes (HLM) for seven major CYP450 isoforms CYP1A2, CYP2C9, CYP2D6, CYP2B6, CYP2C8, CYP2C19 and CYP3A4 were assessed. […] 50 μM phenacetin, 2 μM midazolam, 5 μM diclofenac, 50 μM mephenytoin, 80 μM bupropion, and 5 μM dextromethorphan were used as probe substrates of CYP1A2, CYP3A4, CYP2C9, CYP2C19, CYP2B6, and CYP2D6, respectively. The incubation times were 20 min for […], CYP2D6, CYP2C9, CYP2B6, and CYP2C8; 40 min for CYP2C19; and 10 min for CYP 3A4. Following incubations, the reactions were terminated with acetonitrile containing internal standard. The samples were centrifuged and the supernatants were analyzed for the formation of metabolites (1-hydroxymidazolam (CYP3A4), 4-hydroxydiclofenac (CYP2C9), 4-hydroxymephenytoin (CYP2C19) and dextrorphan (CYP2D6), hydroxybupropion (CYP2B6), acetaminophen (CYP1A2), desethylamodiaquine (CYP2C8)) by LC/MS/MS.

[6] = target: CYP2C9 (Homo sapiens (Human), UniProt P11712); assay: CYP inhibition in human liver microsomes; details: read-out: CYP-2C9; human liver microsomes; probe substrate diclofenac
Sequence of CYP2C9 (P11712 whole entry): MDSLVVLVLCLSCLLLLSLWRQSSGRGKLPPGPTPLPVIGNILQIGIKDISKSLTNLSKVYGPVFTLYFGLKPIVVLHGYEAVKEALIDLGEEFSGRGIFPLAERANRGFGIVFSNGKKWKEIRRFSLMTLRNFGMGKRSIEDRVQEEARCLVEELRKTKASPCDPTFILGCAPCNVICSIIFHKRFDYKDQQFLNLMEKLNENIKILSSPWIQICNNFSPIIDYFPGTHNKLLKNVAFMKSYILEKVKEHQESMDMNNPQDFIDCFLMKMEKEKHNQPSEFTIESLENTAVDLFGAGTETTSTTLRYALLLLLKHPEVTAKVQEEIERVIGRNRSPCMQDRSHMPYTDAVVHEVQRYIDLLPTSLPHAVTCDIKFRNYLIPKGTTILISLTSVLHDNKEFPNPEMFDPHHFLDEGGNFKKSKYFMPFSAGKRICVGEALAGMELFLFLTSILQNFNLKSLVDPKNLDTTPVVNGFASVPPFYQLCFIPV
Experimental: as §2

[7] = target: CYP2C8 (Homo sapiens (Human), UniProt P10632); assay: CYP inhibition in human liver microsomes; details: read-out: CYP-2C8, metabolite desethylamodiaquine
Sequence of CYP2C8 (P10632 whole entry): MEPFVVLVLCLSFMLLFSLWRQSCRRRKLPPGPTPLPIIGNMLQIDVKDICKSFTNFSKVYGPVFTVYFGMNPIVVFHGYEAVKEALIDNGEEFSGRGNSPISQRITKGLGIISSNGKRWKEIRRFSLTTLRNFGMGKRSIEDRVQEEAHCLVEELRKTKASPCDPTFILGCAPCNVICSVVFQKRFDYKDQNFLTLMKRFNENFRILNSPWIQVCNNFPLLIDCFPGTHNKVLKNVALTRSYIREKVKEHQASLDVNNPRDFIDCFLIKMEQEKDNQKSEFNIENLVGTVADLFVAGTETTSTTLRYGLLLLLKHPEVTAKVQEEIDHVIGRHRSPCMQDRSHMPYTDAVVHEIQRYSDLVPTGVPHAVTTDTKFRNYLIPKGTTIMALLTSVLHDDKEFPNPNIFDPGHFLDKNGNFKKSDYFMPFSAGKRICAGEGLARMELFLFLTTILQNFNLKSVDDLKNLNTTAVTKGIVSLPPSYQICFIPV
Experimental: as §2

[8] = target: CYP2C19 (Homo sapiens (Human), UniProt P33261); assay: CYP inhibition in human liver microsomes; details: read-out: CYP-2C19; human liver microsomes; probe substrate mephenytoin
Sequence of CYP2C19 (P33261 whole entry): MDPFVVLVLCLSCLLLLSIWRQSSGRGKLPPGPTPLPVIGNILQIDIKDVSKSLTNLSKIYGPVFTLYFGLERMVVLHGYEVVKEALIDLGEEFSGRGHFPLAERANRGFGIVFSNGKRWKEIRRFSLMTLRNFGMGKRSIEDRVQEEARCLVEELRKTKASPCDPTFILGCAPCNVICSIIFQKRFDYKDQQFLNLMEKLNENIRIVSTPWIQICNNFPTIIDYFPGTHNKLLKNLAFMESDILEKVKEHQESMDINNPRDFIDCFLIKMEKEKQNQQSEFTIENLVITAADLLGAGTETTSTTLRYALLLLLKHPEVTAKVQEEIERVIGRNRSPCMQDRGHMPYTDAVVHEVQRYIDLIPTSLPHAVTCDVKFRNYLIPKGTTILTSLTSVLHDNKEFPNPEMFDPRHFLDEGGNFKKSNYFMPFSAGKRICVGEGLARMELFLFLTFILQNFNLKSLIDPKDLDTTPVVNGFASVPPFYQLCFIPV
Experimental: as §2

[9] = target: CYP3A4 (Homo sapiens (Human), UniProt P08684); assay: CYP inhibition in human liver microsomes; details: read-out: CYP-3A4; human liver microsomes; probe substrate midazolam
Sequence of CYP3A4 (P08684 whole entry): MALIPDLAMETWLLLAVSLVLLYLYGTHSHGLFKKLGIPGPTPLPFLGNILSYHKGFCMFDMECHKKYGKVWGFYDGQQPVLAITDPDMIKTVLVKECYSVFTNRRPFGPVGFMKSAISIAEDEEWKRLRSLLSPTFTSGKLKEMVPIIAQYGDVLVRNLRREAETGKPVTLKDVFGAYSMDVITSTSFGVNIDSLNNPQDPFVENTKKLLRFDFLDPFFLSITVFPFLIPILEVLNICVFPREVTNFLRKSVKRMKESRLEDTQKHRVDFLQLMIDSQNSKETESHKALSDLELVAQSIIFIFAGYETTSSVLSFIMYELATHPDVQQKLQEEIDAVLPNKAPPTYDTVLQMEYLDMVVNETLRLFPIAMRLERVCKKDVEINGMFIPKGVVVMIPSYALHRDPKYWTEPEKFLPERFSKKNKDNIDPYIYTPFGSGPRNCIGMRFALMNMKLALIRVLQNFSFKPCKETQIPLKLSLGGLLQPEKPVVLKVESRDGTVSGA
Experimental: as §2

[10] = target: CYP2D6 (Homo sapiens (Human), UniProt P10635); assay: CYP inhibition in human liver microsomes; details: read-out: CYP-2D6; human liver microsomes; probe substrate dextromethorphan
Sequence of CYP2D6 (P10635 whole entry): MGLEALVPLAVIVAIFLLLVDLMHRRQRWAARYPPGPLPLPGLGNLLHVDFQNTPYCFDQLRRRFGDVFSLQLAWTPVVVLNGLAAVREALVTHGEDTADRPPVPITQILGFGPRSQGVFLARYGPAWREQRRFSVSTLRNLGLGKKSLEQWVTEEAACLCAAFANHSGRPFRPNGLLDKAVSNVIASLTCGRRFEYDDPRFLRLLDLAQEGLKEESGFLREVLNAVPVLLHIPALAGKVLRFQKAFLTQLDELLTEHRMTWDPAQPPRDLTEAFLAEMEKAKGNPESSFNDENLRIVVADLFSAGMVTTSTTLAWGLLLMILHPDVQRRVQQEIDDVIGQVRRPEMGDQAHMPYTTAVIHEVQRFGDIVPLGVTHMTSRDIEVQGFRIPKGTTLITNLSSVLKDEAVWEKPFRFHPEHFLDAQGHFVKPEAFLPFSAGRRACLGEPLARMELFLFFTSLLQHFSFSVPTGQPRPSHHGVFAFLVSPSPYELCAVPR
Experimental: as §2

[11] = system: ATF6; assay: ERSE ATF6-luciferase reporter assay (thapsigargin-induced ER stress); format: cell-based, human; details: Homo sapiens, U2OS, thapsigargin-induced ER stress, U2-OS ATF6 luc reporter cells; for inhibition at 1 µM: 8 h, 8 hr
[12] = in vivo; details: Balb/c, mouse, po, 10 mg/kg
Experimental: (§3) Tested compounds were formulated at 1 mg/mL as a dosing solution for oral administration in vehicle A: 10% dimethylacetamide (DMAC), 20% propylene glycol, and 40% PEG-400 or vehicle B: 10% Kolliphor® EL and 10% ethanol (EtOH).
(§4) Animals were acclimated for a minimum period of 4 days upon arrival at the testing facility.
(§5) At the day of study, mice were weighed, identified by marking the tail with numbers using a non-toxic permanent marker, and designated into ten experimental groups (n=3 per group).
(§6) Non-dosed mice were used to collect samples of zero time points. […] Blood samples were centrifuged immediately at 9,000 g at 4° C. for 5 minutes and then plasmas were separated. Plasma samples were placed into individually labeled cryovials and stored in a −80° C. freezer until LC/MS/MS bioanalysis.
(§7) The bioanalysis of plasma samples was conducted with a QTRAP 4500 triple quadrupole mass spectrometer (Applied Biosystems SCIEX) in the positive ion mode and interfaced with an Ekspert Ultra LC100 UPLC System (Eksigent). Calibration standards (0.01 to 10 μM) and QCs (0.02, 0.2 and 2.0 μM) were prepared from naïve mouse plasma in parallel with mouse plasma study samples (60 μL) by precipitation with three volumes of ice cold internal standard solution (acetonitrile containing 20 μM of theophylline). The precipitated samples were centrifuged at 6,100 g for 30 min. Following centrifugation, an aliquot of each supernatant was transferred to an autosampler plate and diluted with two volumes of aqueous mobile phase (0.1% formic acid in water). Samples were injected onto a reverse phase analytical column (YMC Triart C18; 2.0×50 mm; 1.9 μm; YMC CO) and eluted with a gradient of 0.1% formic acid in Acetonitrile. Assayed test compound and internal standards were monitored by a multiple reaction monitoring (MRM) experiment using an Analyst software (v1.6.2, Applied Biosystems SCIEX). Quantitation was conducted using a MultiQuant software (v2.1, Applied Biosystems SCIEX) and the resulting calibration curve was fitted with a linear regression and 1/x weighting. The lower limits of quantitation were 1<LLQ <5 ng/mL.

[13] = mouse, in vivo, po, 10 mg/kg
Experimental: as §3, §4, §5, §6, §7

[14] = human, human liver microsomes, pH 7.4, read-out: T1/2 @ hLM
[15] = read-out: Inh. ATF6-Luc @ 1 μM [%], 1 μM test compound
[16] = read-out: IC50 ATF6-Luc reporter [μM], dose-response 30 μM to 1 nM
[17] = 1 μM test compound, read-out: Inh. ATF6-Luc @ 1 μM [%]
[18] = dose-response 30 μM to 1 nM, read-out: IC50 ATF6-Luc reporter

Row | Structure (SMILES) | microsomal CLint at […], 1 µM [1] | Rem. @ mLM (%) [1] | solubility kinetic at 1 h [2] | microsomal CLint at […], 1 µM [3] | half-life at 1 μM [3] | Rem. @ rLM (%) [3] | half-life at 1 μM [4, 14] | microsomal CLint at […], 1 µM ([4]; pH 7.4, human liver microsomes) | Rem. @ hLM (%) [4] | IC50 [5] | IC50 [6] | IC50 [7] | IC50 [8] | IC50 [9] | IC50 [10] | inhibition at 1 µM [11, 15] | IC50 [11, 16] | half-life at 1 μM [1] | inhibition at 1 µM [11, 17] | IC50 [11, 18] | further results
1 | Cc1nn([C@H](C)c2ccc(C(F)(F)F)cc2C(F)(F)F)cc1NC(=O)c1cc(-c2ccccn2)on1 [Compound 99, (R)—N-(1-(1-(2,4-bis(trifluoromethyl)phenyl)ethyl)-3-methyl-1H-pyrazol-4-yl)-5-(pyridin-2-yl)isoxazole-3-carboxamide] | 85.2 µL/min/mg | 29.2% | 2.34 µM (≈ 1.19 µg/mL) | 28.3 µL/min/mg | 49 min | 60.9% | 35.4 min | 39.2 µL/min/mg | 49.2% | 4.8 µM | 2.5 µM | 1 µM | 8.8 µM | > 50 µM | 32 µM | 25 to 50% | 1 to 10 µM | – | – | – | half-life at […], 1 µM [1]: 16.3 min
2 | O=C(Nc1cnn(Cc2ccc(C(F)(F)F)cc2C(F)(F)F)c1)c1cc(-c2ncccn2)on1 [Compound 129, N-(1-(2,4-bis(trifluoromethyl)benzyl)-1H-pyrazol-4-yl)-5-(pyrimidin-2-yl)isoxazole-3-carboxamide] | – | 67.9% | – | 12 µL/min/mg | – | 84.5% | 63.2 min | – | 68.0% | > 50 µM | > 50 µM | > 50 µM | > 50 µM | > 50 µM | > 50 µM | > 50% | < 1 µM | 62.6 min | – | – | microsomal CLint at 1 μM [1]: 22 µL/min/mg; half-life at […], 1 µM [3]: 114 min; microsomal CLint at 1 μM ([4]; pH 7.4, human liver microsomes): 22 µL/min/mg
3 | C[C@H](c1ccc(C(F)(F)F)cc1C(F)(F)F)n1cc(NC(=O)c2cc(-c3cnccn3)on2)cn1 [Compound 131, (R)—N-(1-(1-(2,4-bis(trifluoromethyl)phenyl)ethyl)-1H-pyrazol-4-yl)-5-(pyrazin-2-yl)isoxazole-3-carboxamide] | – | – | – | – | – | – | – | – | – | 44.5 µM | > 50 µM | 43.3 µM | 16.4 µM | > 50 µM | > 50 µM | > 50% | < 1 µM | – | – | – | AUC(0-inf) [12]: 107 µg·h/mL; AUC(0-t) [12]: 98.7 µg·h/mL; Cmax [12]: 7030 ng/mL; Tmax [12]: 360 min; half-life [12]: 370 min; AUCExtr [%] ([13]; Balb/c): 7.75%; F [%] ([13]; Balb/c): 85.9%; Vz ([13]; Balb/c): 0.831 L/kg; Last time point for AUClast [13]: 24 h
4 | Cc1c(NC(=O)c2cc(-c3ccccn3)on2)cnn1[C@H](C)c1ccc(C(F)(F)F)cc1C(F)(F)F [Compound 97, (R)—N-(1-(1-(2,4-bis(trifluoromethyl)phenyl)ethyl)-5-methyl-1H-pyrazol-4-yl)-5-(pyridin-2-yl)isoxazole-3-carboxamide] | 52.2 µL/min/mg | 44.5% | 2.92 µM (≈ 1.49 µg/mL) | 23.6 µL/min/mg | 58.7 min | 64.4% | 53.6 min | 25.9 µL/min/mg | 59.3% | – | – | – | – | – | – | – | – | 26.6 min | 25 to 50% | 1 to 10 µM | –
5 | CCC(c1ccc(C(F)(F)F)cc1C(F)(F)F)n1cc(NC(=O)c2cc(-c3ccccn3)on2)cn1 (stereo not shown) [Compound 1, N-(1-(1-(2,4-bis(trifluoromethyl)phenyl)propyl)-1H-pyrazol-4-yl)-5-(pyridin-2-yl)isoxazole-3-carboxamide] | – | 54.8% | 2.7 µM (≈ 1.38 µg/mL) | – | 32.4 min | 51.8% | 67.7 min | – | 71.4% | – | – | – | – | – | – | – | – | 35.1 min | 25 to 50% | < 1 µM | microsomal CLint at 1 μM [1]: 39.5 µL/min/mg; microsomal CLint at 1 μM [3]: 42.7 µL/min/mg; microsomal CLint at 1 μM ([4]; pH 7.4, human liver microsomes): 20.5 µL/min/mg
6 | C[C@H](c1ccc(C(F)(F)F)cc1C(F)(F)F)n1cc(NC(=O)c2cc(-c3ncccn3)on2)cn1 [Compound 101, (R)—N-(1-(1-(2,4-bis(trifluoromethyl)phenyl)ethyl)-1H-pyrazol-4-yl)-5-(pyrimidin-2-yl)isoxazole-3-carboxamide] | 37.7 µL/min/mg | 51.17% | 2.34 µM (≈ 1.16 µg/mL) | 28.2 µL/min/mg | 49.1 min | 60.62% | 36 min | 38.5 µL/min/mg | 52.49% | – | – | – | – | – | – | – | – | 36.7 min | > 50% | < 1 µM | –
7 | O=C(Nc1cnn(Cc2ccc(C(F)(F)F)cc2C(F)(F)F)c1)c1cc(-c2cccs2)on1 [Compound 14, N-(1-(2,4-bis(trifluoromethyl)benzyl)-1H-pyrazol-4-yl)-5-(thiophen-2-yl)isoxazole-3-carboxamide] | 187 µL/min/mg | 5.62% | 35.2 µM (≈ 17.1 µg/mL) | 314 µL/min/mg | – | 0.85% | 32.1 min | 43 µL/min/mg | 50.1% | – | – | – | – | – | – | – | – | 7.4 min | 25 to 50% | < 1 µM | half-life at […], 1 µM [3]: 4.4 min
8 | CN(C(=O)c1cc(-c2ccccn2)on1)c1cnn(Cc2ccc(C(F)(F)F)cc2C(F)(F)F)c1 [Compound 103, N-(1-(2,4-bis(trifluoromethyl)benzyl)-1H-pyrazol-4-yl)-N-methyl-5-(pyridin-2-yl)isoxazole-3-carboxamide] | 271 µL/min/mg | 0.94% | 9.37 µM (≈ 4.64 µg/mL) | – | 7.24 min | 5.24% | – | 258 µL/min/mg | 2.1% | – | – | – | – | – | – | – | – | – | 25 to 50% | 1 to 10 µM | half-life at […], 1 µM [1]: 5.12 min; microsomal CLint at 1 μM [3]: 191 µL/min/mg; half-life at […], 1 µM [4, 14]: 5.38 min
9 | C[C@H](c1ccc(F)cc1C(F)(F)F)n1cc(NC(=O)c2cc(-c3ccccn3)on2)cn1 [Compound 110, (R)—N-(1-(1-(4-fluoro-2-(trifluoromethyl)phenyl)ethyl)-1H-pyrazol-4-yl)-5-(pyridin-2-yl)isoxazole-3-carboxamide] | 97.7 µL/min/mg | 20.03% | 4.68 µM (≈ 2.08 µg/mL) | 28.7 µL/min/mg | 48.3 min | 60.99% | 27 min | 51.3 µL/min/mg | 39.72% | – | – | – | – | – | – | – | – | 14.2 min | 25 to 50% | 1 to 10 µM | –
